Data taken from ChEMBL document CHEMBL1770076, “(+)-Arisugacin A--computational evidence of a dual binding site covalent inhibitor of acetylcholinesterase” (Bioorg Med Chem Lett, 2011).

Columns and labels:
Cholinesterase = Cholinesterase (Homo sapiens, UniProt P06276)
Acetylcholinesterase = Acetylcholinesterase (Homo sapiens, UniProt P22303)
Chain of Acetylcholinesterase (P22303 whole entry): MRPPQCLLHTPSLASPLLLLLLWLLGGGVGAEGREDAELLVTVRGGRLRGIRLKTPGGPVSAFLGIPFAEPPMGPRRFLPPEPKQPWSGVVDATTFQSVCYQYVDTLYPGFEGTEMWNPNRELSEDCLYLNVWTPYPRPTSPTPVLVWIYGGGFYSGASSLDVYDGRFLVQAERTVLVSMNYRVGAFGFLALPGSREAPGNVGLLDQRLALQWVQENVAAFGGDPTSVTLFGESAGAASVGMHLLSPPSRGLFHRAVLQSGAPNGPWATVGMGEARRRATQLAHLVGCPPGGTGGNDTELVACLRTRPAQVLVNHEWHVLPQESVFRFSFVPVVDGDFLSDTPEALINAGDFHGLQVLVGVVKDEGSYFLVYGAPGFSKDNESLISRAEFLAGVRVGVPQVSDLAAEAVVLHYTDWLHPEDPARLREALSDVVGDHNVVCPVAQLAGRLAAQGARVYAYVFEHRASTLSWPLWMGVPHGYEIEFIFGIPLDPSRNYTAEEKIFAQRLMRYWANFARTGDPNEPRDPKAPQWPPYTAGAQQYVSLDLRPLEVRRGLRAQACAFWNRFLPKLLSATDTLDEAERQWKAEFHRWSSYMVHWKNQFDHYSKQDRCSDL
Description: Inhibition of AChE-induced amyloid beta aggregation

Chain of Cholinesterase (P06276 whole entry): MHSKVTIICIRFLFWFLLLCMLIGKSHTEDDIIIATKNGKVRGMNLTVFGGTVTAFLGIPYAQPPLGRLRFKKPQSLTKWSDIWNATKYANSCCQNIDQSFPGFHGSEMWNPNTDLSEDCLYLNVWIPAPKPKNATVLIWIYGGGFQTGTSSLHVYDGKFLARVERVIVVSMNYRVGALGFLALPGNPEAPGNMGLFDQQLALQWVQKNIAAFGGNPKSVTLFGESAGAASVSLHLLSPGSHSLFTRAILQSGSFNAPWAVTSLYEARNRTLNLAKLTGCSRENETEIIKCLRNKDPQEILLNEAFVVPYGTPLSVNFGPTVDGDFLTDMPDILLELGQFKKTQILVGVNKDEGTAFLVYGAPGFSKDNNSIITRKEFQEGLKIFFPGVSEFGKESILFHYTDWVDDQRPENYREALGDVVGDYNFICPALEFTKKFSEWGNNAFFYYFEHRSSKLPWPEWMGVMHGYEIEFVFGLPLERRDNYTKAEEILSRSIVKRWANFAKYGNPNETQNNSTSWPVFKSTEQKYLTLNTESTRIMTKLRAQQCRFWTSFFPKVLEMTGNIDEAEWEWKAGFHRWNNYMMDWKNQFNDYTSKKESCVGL

Structure (SMILES)	IC50 (Cholinesterase) [nM]	IC50 (Acetylcholinesterase) [nM]
C/C=C1\[C@H]2C=C(C)C[C@]1(N)c1ccc(=O)[nH]c1C2 [HUPERZINE A]	100	
COc1ccc(-c2cc3c(c(=O)o2)C[C@]2(O)[C@@]4(C)C(=O)C=CC(C)(C)[C@]4(O)CC[C@@]2(C)O3)cc1OC	18000	
COc1cc(-c2cc3c(c(=O)o2)C[C@]2(O)[C@@]4(C)C(=O)C=CC(C)(C)[C@]4(O)CC[C@@]2(C)O3)cc(OC)c1OC [TERRITREM B]		6
